Data from patent publication US20060286139A1, “Polymeric drug release system for medical devices” (priority 2003, published 2006).

Test: Drug elution from dual-coated stents (17β-estradiol in PEP94 bottom layer, dexamethasone in PEP90 top layer) into aqueous release medium, HPLC analysis
Type: physicochemical
Settings: for Percentage Released: bottom layer PEP94, aqueous release medium 37° C.; for Total Microgrammes Released: bottom layer PEP94, loading approx 147 μg, aqueous release medium 37° C.
Procedure: This example describes the preparation and elution of stents comprising 17β-estradiol and dexamethasone each contained within a specific ratio of PVB/PnVPA
A coating solution was prepared made up of PEP94 and 17β-estradiol in a blend of chloroform and acetone (80:20 by weight), so that in terms of total solids 25% was 17β-estradiol, 75% polymer.
A second coating solution was prepared made of PEP 90 and dexamethasone in a mixture of chloroform and acetone (80:20 by weight), so that in terms of total solids 25% was dexamethasone, 75% polymer.
The stents were weighed, spray coated in a ratio of 3:1 (estradiol: dexamethasone) with the respective formulations such that the bottom layer comprised PEP94 with 17β-estradiol and the top layer PEP90 with dexamethasone. The stents were then dried overnight at 40° C. under vacuum.
Upon weighing the average coating weight of the stents was 811 μg yielding drug loadings of approx 147 μg±17 μg for 17β-estradiol and 57 μg±16 μg for dexamethasone.
Each stent was placed on a hook and suspended in a vial containing 8 ml of an aqueous release medium with a 5 mm magnetic flea. The vials were placed on a multipoint stirrer set at 1000 rpm and incubated at 37° C. After a given time interval (ranging from 1 hour to several days), the stents were transferred to fresh aliquots of release medium and replaced on the stirrer to resume agitation. The solution containing dexamethasone/17β-estradiol was set aside for analysis.
Analysis of the samples was carried out using HPLC (Agilent 1100 series).

## C[C@]12CC[C@@H]3c4ccc(O)cc4CC[C@H]3[C@@H]1CC[C@@H]2O [17β-estradiol]
Time 1 hour
  Percentage Released: 5.1%
  Total Microgrammes Released: 7.5 µg
Time 7 hours
  Percentage Released: 10.5%
  Total Microgrammes Released: 15.5 µg
Time 24 hours
  Percentage Released: 17.1%
  Total Microgrammes Released: 25.1 µg
